Source: ChEMBL document CHEMBL5543087 (Eur J Med Chem, 2024)
pIC50: −log10 of the molar value. Counter-ions that a name gives are not always drawn. Numbered stars: 1 amine (or outer) side, 2 acyl side, 3 side chain; on linkers, the order of the positions; unused ones are H or OH. Square brackets hold non-standard residues; d marks the D form. Peptide text beside a SMILES is read from it. * marks the point of attachment. X2 = C[C@@](N[*:1])(C(=O)[*:2])C(F)(F)F; X1 = C[C@](N[*:1])(C(=O)[*:2])C(F)(F)F; Sta = CC(C)C[C@H](N)[C@@H](O)CC(=O)O; Cbz = O=C(OCc1ccccc1)*; Tfa = O=C(C(F)(F)F)*

Key:
[1] = Inhibition of porcine gastric mucosa Pepsin using MCA labeled GKPILFFRLK(DNP)-D-R-NH2 as substrate preincubated for 10 mins followed by substrate addition by FRET assay; set-up: species or system Sus scrofa
BJ [2] = experiment: Cytotoxicity against human BJ cells assessed as increase in LDH activity incubated for 24 hrs; assay type: toxicity, cell-based
SK-OV-3 [3] = experiment: Cytotoxicity against human SK-OV-3 cells assessed as increase in LDH activity incubated for 24 hrs; assay type: toxicity, cell-based; settings: sk-ov-3, 24 h
[4] = Chromatographic hydrophobicity index of compound incubated for 20 mins by reversed-phase HPLC analysis; assay type: ADME
[5] = Lipophilicity, logP of compound in n-Octanol/water; assay type: physicochemical
SK-OV-3 [6] = experiment: Cytotoxicity against human SK-OV-3 cells assessed as increase in LDH activity at IC50 incubated upto 96 hrs; assay type: toxicity, cell-based; settings: sk-ov-3, 96 h
SK-OV-3 [7] = experiment: Cytotoxicity against human SK-OV-3 cells assessed as increase in LDH activity at 40 uM incubated upto 96 hrs; assay type: toxicity, cell-based; settings: sk-ov-3, 96 h
BJ [8] = experiment: Cytotoxicity against human BJ cells assessed as increase in LDH activity at IC50 incubated upto 96 hrs; assay type: toxicity, cell-based
SK-OV-3 [9] = experiment: Cytotoxicity against human SK-OV-3 cells assessed as change in cell morphology at IC50 incubated for 24 hrs by DAPI fluorescent staining analysis; assay type: toxicity, cell-based; settings: sk-ov-3, 24 h
SK-OV-3 [10] = experiment: Cytotoxicity against human SK-OV-3 cells assessed as change in nucleus morphology at IC50 incubated for 24 hrs by DAPI fluorescent staining analysis; assay type: toxicity, cell-based; settings: sk-ov-3, 24 h
SK-OV-3 [11] = experiment: Cytotoxicity against human SK-OV-3 cells assessed as diffused F-actin network at IC50 incubated for 24 hrs by phalloidin fluorescent staining analysis; assay type: toxicity, cell-based; settings: sk-ov-3, 24 h
SK-OV-3 [12] = experiment: Cytotoxicity against human SK-OV-3 cells assessed as cell retraction at 40 uM incubated for 24 hrs by DAPI fluorescent staining analysis; assay type: toxicity, cell-based; settings: sk-ov-3, 24 h
SK-OV-3 [13] = experiment: Cytotoxicity against human SK-OV-3 cells assessed as change in cell cytoskeleton at IC50 incubated for 24 hrs by phalloidin fluorescent staining analysis; assay type: toxicity, cell-based; settings: sk-ov-3, 24 h
SK-OV-3 [14] = experiment: Cytotoxicity against human SK-OV-3 cells assessed as change in fibronectin matrix organization at IC50 incubated for 24 hrs by phalloidin fluorescent staining analysis; assay type: toxicity, cell-based; settings: sk-ov-3, 24 h
SK-OV-3 [15] = experiment: Cytotoxicity against human SK-OV-3 cells assessed as change in cell cytoskeleton at 40 uM incubated for 24 hrs by phalloidin fluorescent staining analysis; assay type: toxicity, cell-based; settings: sk-ov-3, 24 h
SK-OV-3 [16] = experiment: Cytotoxicity against human SK-OV-3 cells assessed as change in fibronectin matrix organization at 40 uM incubated for 24 hrs by phalloidin fluorescent staining analysis; assay type: toxicity, cell-based; settings: sk-ov-3, 24 h
Cathepsin D = Cathepsin D (Homo sapiens, UniProt P07339); experiment: Inhibition of human Cathepsin D using MCA labeled GKPILFFRLK(DNP)-D-R-NH2 as substrate preincubated for 10 mins followed by substrate addition by FRET assay
Sequence of Cathepsin D (P07339 65-162 limits assumed): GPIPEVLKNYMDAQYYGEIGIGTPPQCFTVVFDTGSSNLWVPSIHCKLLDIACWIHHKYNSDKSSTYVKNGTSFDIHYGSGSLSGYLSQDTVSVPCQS
Sequence of Cathepsin D (P07339 169-412 limits assumed): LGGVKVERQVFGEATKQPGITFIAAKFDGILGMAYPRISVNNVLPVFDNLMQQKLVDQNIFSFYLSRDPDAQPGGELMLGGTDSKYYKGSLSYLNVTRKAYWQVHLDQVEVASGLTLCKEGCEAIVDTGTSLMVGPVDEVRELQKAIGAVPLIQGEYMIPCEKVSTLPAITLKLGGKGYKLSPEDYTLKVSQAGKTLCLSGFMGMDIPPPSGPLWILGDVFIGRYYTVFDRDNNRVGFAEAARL

SK-OV-3 [17] = experiment: Cytotoxicity against human SK-OV-3 cells assessed as increase in LDH activity at 28 uM incubated upto 96 hrs; assay type: toxicity, cell-based; settings: sk-ov-3, 96 h
SK-OV-3 [18] = experiment: Cytotoxicity against human SK-OV-3 cells assessed as cell retraction at 28 uM incubated for 24 hrs by DAPI fluorescent staining analysis; assay type: toxicity, cell-based; settings: sk-ov-3, 24 h
SK-OV-3 [19] = experiment: Cytotoxicity against human SK-OV-3 cells assessed as change in cell cytoskeleton at 28 uM incubated for 24 hrs by phalloidin fluorescent staining analysis; assay type: toxicity, cell-based; settings: sk-ov-3, 24 h
SK-OV-3 [20] = experiment: Cytotoxicity against human SK-OV-3 cells assessed as change in fibronectin matrix organization at 28 uM incubated for 24 hrs by phalloidin fluorescent staining analysis; assay type: toxicity, cell-based; settings: sk-ov-3, 24 h

SMILES	pIC50 [1]	CHI [4]	logP [5]	Activity (BJ [2])	Activity (SK-OV-3 [3])	also measured
CC(C)CC(=O)N[C@@H](CCSC(F)(F)F)C(=O)N[C@H](C(=O)N[C@@H](CC(C)C)[C@@H](O)CC(=O)N[C@@H](C)C(=O)N[C@@H](CC(C)C)[C@@H](O)CC(=O)O)C(C)C	6.11	46.95	3.33	Non-Toxic	Non-Toxic	–
CC(C)C[C@H](NC(=O)[C@H](C)NC(=O)C[C@H](O)[C@H](CC(C)C)NC(=O)[C@@H](NC(=O)[C@@H](NC(=O)C(F)(F)F)C(C)C)C(C)C)[C@@H](O)CC(=O)O (Tfa-VV[Sta]A[Sta]-OH)	< 5.40	43.68	2.44	–	–	pIC50 (Cathepsin D): < 5.70
CC(C)CC(=O)N[C@@H](C(=O)N[C@H](C(=O)N[C@@H](CCSC(F)(F)F)[C@@H](O)CC(=O)N[C@@H](C)C(=O)N[C@@H](CC(C)C)[C@@H](O)CC(=O)O)C(C)C)C(C)C	6.71	–	–	–	–	–
CC(C)C[C@H](NC(=O)[C@H](C)NC(=O)C[C@H](O)[C@H](CC(C)C)NC(=O)[C@@H](NC(=O)[C@@](C)(NC(=O)OCc1ccccc1)C(F)(F)F)C(C)C)[C@@H](O)CC(=O)O (Cbz-[X2]V[Sta]A[Sta]-OH)	6.43	49.19	3.97	Non-Toxic	Non-Toxic	–

The next compounds have a higher pIC50 [1] than those just listed; values first:

pIC50 [1]	CHI [4]	logP [5]	SMILES	Activity (BJ [2])	Activity (SK-OV-3 [3])	also measured
7.68	–	–	CC(C)CC(=O)N[C@@H](C(=O)N[C@H](C(=O)N[C@@H](CC(C)C)[C@@H](O)CC(=O)N[C@@H](C)C(=O)N[C@@H](CC(C)C)[C@@H](O)CC(=O)O)C(C)C)C(C)C	Non-Toxic	Non-Toxic	–
7.51	45.85	3.3	CC(C)CC(=O)N[C@H](CCSC(F)(F)F)C(=O)N[C@H](C(=O)N[C@@H](CC(C)C)[C@@H](O)CC(=O)N[C@@H](C)C(=O)N[C@@H](CC(C)C)[C@@H](O)CC(=O)O)C(C)C	Non-Toxic	Non-Toxic	Activity (SK-OV-3 [6]): Non-Toxic; Activity (SK-OV-3 [7]): Toxic; Activity (BJ [8]): Non-Toxic; Activity (SK-OV-3 [9]): Toxic; Activity (SK-OV-3 [10]): Toxic; Activity (SK-OV-3 [11]): Toxic; Activity (SK-OV-3 [12]): Toxic; Activity (SK-OV-3 [13]): Toxic; Activity (SK-OV-3 [14]): Toxic; Activity (SK-OV-3 [15]): Toxic; Activity (SK-OV-3 [16]): Toxic
7.30	39.55	2.37	CC(C)CC(=O)N[C@H](C(=O)N[C@H](C(=O)N[C@@H](CC(C)C)[C@@H](O)CC(=O)N[C@@H](C)C(=O)N[C@@H](CC(C)C)[C@@H](O)CC(=O)O)C(C)C)C(C)C [PEPSTATIN]	–	–	–
7.32	47.24	3.36	CC(C)C[C@H](NC(=O)[C@H](C)NC(=O)C[C@H](O)[C@H](CC(C)C)NC(=O)[C@@H](NC(=O)[C@](C)(NC(=O)OCc1ccccc1)C(F)(F)F)C(C)C)[C@@H](O)CC(=O)O (Cbz-[X1]V[Sta]A[Sta]-OH)	Non-Toxic	Non-Toxic	Activity (SK-OV-3 [6]): Non-Toxic; Activity (SK-OV-3 [17]): Toxic; Activity (BJ [8]): Non-Toxic; Activity (SK-OV-3 [9]): Toxic; Activity (SK-OV-3 [10]): Toxic; Activity (SK-OV-3 [11]): Toxic; Activity (SK-OV-3 [18]): Toxic; Activity (SK-OV-3 [13]): Toxic; Activity (SK-OV-3 [14]): Toxic; Activity (SK-OV-3 [19]): Toxic; Activity (SK-OV-3 [20]): Toxic
